What was measured:
Cannabinoid receptor 1 = Cannabinoid receptor 1 (Rattus norvegicus, UniProt P20272); assay: Displacement of [3H]CP-55940 from CB1 receptor in rat brain synaptosome membrane; type: cell membranes
Cannabinoid receptor 2 = Cannabinoid receptor 2 (Mus musculus, UniProt P47936); assay: Displacement of [3H]CP-55940 from CB2 receptor in mouse spleen membrane; type: cell membranes
Cannabinoid receptor 2, sequence (P47936 whole entry): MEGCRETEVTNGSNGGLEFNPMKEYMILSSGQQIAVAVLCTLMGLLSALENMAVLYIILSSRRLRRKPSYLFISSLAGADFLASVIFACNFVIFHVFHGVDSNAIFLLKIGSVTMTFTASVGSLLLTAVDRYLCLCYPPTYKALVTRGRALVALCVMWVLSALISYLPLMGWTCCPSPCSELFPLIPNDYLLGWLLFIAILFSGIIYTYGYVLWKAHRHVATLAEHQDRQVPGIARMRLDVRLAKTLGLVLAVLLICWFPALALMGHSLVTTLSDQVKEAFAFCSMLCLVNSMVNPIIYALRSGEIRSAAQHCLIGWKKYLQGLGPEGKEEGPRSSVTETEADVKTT

Cannabinoid receptor 1, sequence (P20272 whole entry): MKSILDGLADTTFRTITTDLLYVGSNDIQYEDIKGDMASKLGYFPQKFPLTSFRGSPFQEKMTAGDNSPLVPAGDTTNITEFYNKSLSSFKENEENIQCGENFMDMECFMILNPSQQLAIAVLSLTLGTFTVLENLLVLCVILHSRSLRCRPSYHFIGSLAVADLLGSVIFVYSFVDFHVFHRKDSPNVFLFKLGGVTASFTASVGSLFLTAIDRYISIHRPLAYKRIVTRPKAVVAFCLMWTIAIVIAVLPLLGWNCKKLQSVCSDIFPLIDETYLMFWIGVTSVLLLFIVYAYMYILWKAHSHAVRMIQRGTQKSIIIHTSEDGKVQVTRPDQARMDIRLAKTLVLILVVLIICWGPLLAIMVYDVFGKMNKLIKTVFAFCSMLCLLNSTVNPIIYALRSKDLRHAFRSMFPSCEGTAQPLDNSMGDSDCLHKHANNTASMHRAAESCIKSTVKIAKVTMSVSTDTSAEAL

SMILES | Ki (Cannabinoid receptor 1) [nM] | Ki (Cannabinoid receptor 2) [nM]
CC1=CC[C@@H]2[C@@H](C1)c1c(O)cc([C@@H]3C[C@@H]4CC[C@]3(C)C4(C)C)cc1OC2(C)C | 60.2 | 6.1
CC1=CC[C@@H]2[C@@H](C1)c1c(ccc(C[C@@H]3C[C@@H]4CC[C@]3(C)C4(C)C)c1O)OC2(C)C | 49 | 49.5
CC1=CC[C@@H]2[C@@H](C1)c1c(O)cc([C@H]3C[C@@H]4CC[C@]3(C)C4(C)C)cc1OC2(C)C | 8.9 | 7.4
CC1=CC[C@@H]2[C@@H](C1)c1c(ccc(C[C@H]3C[C@@H]4CC[C@]3(C)C4(C)C)c1O)OC2(C)C | 32.7 | 30.5
